Experimental data as given in patent publication US20230392217A1 (priority 2020, published 2023).
Read-outs that look alike come from different tables or passages of the source.

Columns and labels:
[1] = test system: methicillin-sensitive S. aureus (MSSA); conditions: cited from earlier work
[2] = test system: methicillin-resistant S. aureus (MRSA); conditions: cited from earlier work
[3] = test system: SosA protein of Staphylococcus aureus; test: SosA expression of Staphylococcus aureus according to concentration of ciprofloxacin, detected using SosA antibodies; type: cell-based; conditions: detected using the SosA antibody, FIG. 10
Procedure: Pellets of microorganisms were suspended with 1 ml of DPBS containing sosA-specific antibodies that were diluted at 1:2,000 and cultured overnight at 37° C., 180 rpm. Thereafter, centrifugation was performed at 13,000 rpm for 1 minute, secondary antibodies (anti-mouse FITC, Abcam) diluted at 1:500 were treated, and culture was performed at 37° C., 180 rpm for 3 hours. 100 ul of a sample was transferred to a 12-well plate containing an 18 mm cover glass and centrifuged at 1,100 rpm for 1 minute, and the bacteria were attached to a cover glass. The plates were washed three times with DPBS, and centrifugation was performed at 1,100 rpm for 1 minute. The cover glass was attached to the slide, and then imaging was performed using the Zeiss LSM 5 live confocal microscope. Images were acquired using Plan-Apochromat 63×1.4 NA objectives, and analysis was performed to detect GFP fluorescence by setting to 488 nm for excitation wavelength and 513±12 nm for emission wavelength.
In addition, each sample was transferred to a 96-well plate, and absorbance measurement and fluorescence analysis were performed using Ensight (PerkinElmer). In the case of green fluorescence, the excitation wavelength was at 488 nm and the emission wavelength was at 528 nm, and in the case of red fluorescence, the excitation wavelength was at 558 nm and the emission wavelength was at 615 nm. […]

O=C(O)c1cn(C2CC2)c2cc(N3CCNCC3)c(F)cc2c1=O [Ciprofloxacin, ciprofloxacin]
antibiotic susceptibility/resistance ([1]; strain MSSA #1): Susceptible | antibiotic susceptibility/resistance ([1]; strain MSSA #2): Susceptible | antibiotic susceptibility/resistance ([1]; strain MSSA #3): Susceptible | antibiotic susceptibility/resistance ([1]; strain MSSA #4): Susceptible | antibiotic susceptibility/resistance ([1]; strain MSSA #5): Susceptible | antibiotic susceptibility/resistance ([1]; strain MSSA #6): Susceptible | antibiotic susceptibility/resistance ([1]; strain MSSA #7): Resistant | antibiotic susceptibility/resistance ([1]; strain MSSA #8): Resistant | antibiotic susceptibility/resistance ([1]; strain MSSA #9): Susceptible | antibiotic susceptibility/resistance ([1]; strain MSSA #10): Susceptible | antibiotic susceptibility/resistance ([1]; strain MSSA #11): Susceptible | antibiotic susceptibility/resistance ([1]; strain MSSA #12): Susceptible | antibiotic susceptibility/resistance ([1]; strain MSSA #13): Susceptible | antibiotic susceptibility/resistance ([1]; strain MSSA #14): Susceptible | antibiotic susceptibility/resistance ([1]; strain MSSA #15): Susceptible | antibiotic susceptibility/resistance ([1]; strain MSSA #16): Susceptible | antibiotic susceptibility/resistance ([1]; strain MSSA #17): Susceptible | antibiotic susceptibility/resistance ([1]; strain MSSA #18): Susceptible | antibiotic susceptibility/resistance ([1]; strain MSSA #19): Susceptible | antibiotic susceptibility/resistance ([1]; strain MSSA #20): Resistant | antibiotic susceptibility/resistance ([2]; strain MRSA #1): Resistant | antibiotic susceptibility/resistance ([2]; strain MRSA #2): Resistant | antibiotic susceptibility/resistance ([2]; strain MRSA #3): Susceptible | antibiotic susceptibility/resistance ([2]; strain MRSA #4): Susceptible | antibiotic susceptibility/resistance ([2]; strain MRSA #5): Resistant | antibiotic susceptibility/resistance ([2]; strain MRSA #6): Resistant | antibiotic susceptibility/resistance ([2]; strain MRSA #7): Resistant | antibiotic susceptibility/resistance ([2]; strain MRSA #8): Resistant | antibiotic susceptibility/resistance ([2]; strain MRSA #9): Resistant | antibiotic susceptibility/resistance ([2]; strain MRSA #10): Resistant | antibiotic susceptibility/resistance ([2]; strain MRSA #11): Resistant | antibiotic susceptibility/resistance ([2]; strain MRSA #12): Resistant | antibiotic susceptibility/resistance ([2]; strain MRSA #13): Resistant | antibiotic susceptibility/resistance ([2]; strain MRSA #14): Resistant | antibiotic susceptibility/resistance ([2]; strain MRSA #15): Resistant | antibiotic susceptibility/resistance ([2]; strain MRSA #16): Resistant | antibiotic susceptibility/resistance ([2]; strain MRSA #17): Resistant | antibiotic susceptibility/resistance ([2]; strain MRSA #18): Susceptible | antibiotic susceptibility/resistance ([2]; strain MRSA #19): Resistant | antibiotic susceptibility/resistance ([2]; strain MRSA #20): Resistant | antibiotic susceptibility/resistance ([2]; strain MRSA #21): Resistant | antibiotic susceptibility/resistance ([2]; strain MRSA #22): Resistant | antibiotic susceptibility/resistance ([2]; strain MRSA #23): Resistant | antibiotic susceptibility/resistance ([2]; strain MRSA #24): Susceptible | antibiotic susceptibility/resistance ([2]; strain MRSA #25): Resistant | antibiotic susceptibility/resistance ([2]; strain MRSA #26): Susceptible | antibiotic susceptibility/resistance ([2]; strain MRSA #27): Susceptible | antibiotic susceptibility/resistance ([2]; strain MRSA #28): Resistant | antibiotic susceptibility/resistance ([2]; strain MRSA #29): Resistant | antibiotic susceptibility/resistance ([2]; strain MRSA #30): Resistant | expression of SosA [3]: increases with the increase in the administration concentration
